Values of other authors in US10307140B2, “Device for detection of hepatocellar carcinoma (HCC) using an octanoate breath test” (EXALENZ BIOSCIENCE LTD., priority 2011, dated 2019).
Read-outs that look alike come from different tables or passages of the source.

Test system: liver mitochondria
Settings: HCC patients

In the case of `CC(C)CC(=O)C(=O)O` [KICA, ketoisocaproate], the “change of ketoisocaproate decarboxylation” value (after RFA, P<0.05) is listed as −27% and the “change of ketoisocaproate decarboxylation” value (after TACE) is listed as “unaffected”.
